Data set [1] can be described thus: IV and PO single dose pharmacokinetic studies in SD rats. The data set is classed as in vivo. The conditions noted are these: male, Sprague-Dawley, rat, plasma, IV infusion 1 mg/kg vs oral gavage 2 mg/kg, read-out: Rat % F.
The subject of data set [2] is stable HCV 2a JFH-1 Rluc replicon cells (L31 present in NS5A). Nature of the data set: microbe, parasite or virus in culture. It counts as cell-based. The following applies: Hepatitis C virus.
Data set [3] has as its system stable HCV 1b RLuc replicon cells (genotype 1b Con1 replicon). As to the kind of experiment: microbe, parasite or virus in culture. The conditions noted are these: Hepatitis C virus, read-out: 1b (nM). The data set is classed as cell-based.
The subject of data set [4] is stable HCV 1a RLuc replicon cells (genotype 1a H77 replicon). As to the kind of experiment: microbe, parasite or virus in culture. It counts as cell-based. The following applies: Hepatitis C virus.
The test system of data set [5] is NS5A chimeric genotype 2a JFH-1 replicon with genotype 2b MD2b-1 strain NS5A gene (M31 present). Nature of the data set: microbe, parasite or virus in culture. The conditions noted are these: Hepatitis C virus. The data set is classed as cell-based, HCV. In a few lines: (§1)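 Genotype 3a (S52) and 4a (ED43) NS5A chimeras use 1b Con1 Pi-RLuc replicons, transfected transiently; 2b MD2b-1 NS5A chimera (M31) uses 2a JFH-1 RLuc-Neo replicon, transient or stable.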

The test system of data set [6] is NS5A chimeric genotype 2a JFH-1 replicon with genotype 2a J6 strain NS5A gene (M31 present). As to the kind of experiment: microbe, parasite or virus in culture. The data set is classed as cell-based, HCV. The following applies: Hepatitis C virus.
In data set [7] the test system is NS5A chimeric genotype 1b Con1 replicon with genotype 3a S52 strain NS5A gene. As to the kind of experiment: microbe, parasite or virus in culture. The conditions noted are these: Hepatitis C virus. The data set is classed as cell-based, HCV. Summed up: as §1
Data set [8] has as its system 1a Pi-Rluc replicon with Q30R in genotype 1a NS5A. Nature of the data set: microbe, parasite or virus in culture. The following applies: Hepatitis C virus. It counts as cell-based, HCV. Summed up: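 Q30R introduced by site-directed mutagenesis into genotype 1a Pi-RLuc replicon; RNA transiently transfected into Huh-7-derived cured-51 cells.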
The test system of data set [9] is NS5A chimeric genotype 1b Con1 replicon with genotype 4a ED43 strain NS5A gene. Nature of the data set: microbe, parasite or virus in culture. It counts as cell-based, HCV. The conditions noted are these: Hepatitis C virus.

Molecules are shown by their SMILES. Read-outs that look alike come from different tables or passages of the source. A value given as a limit tells only on which side of the number the result lay.

Here are results for 4 compounds from US8575135B2 (Gilead Sciences, Inc., priority 2011, dated 2013).

Turning to `CCC(C)[C@H](NC(=O)OC)C(=O)N1C[C@@H](C)CC1c1ncc(-c2ccc3c(c2)COc2cc4c(ccc5nc([C@@H]6CC(COC)CN6C(=O)[C@H](NC(=O)OC)c6ccccc6)[nH]c54)cc2-3)[nH]1` (stereo in doubt) [Example QB, Methyl {(1R)-2-[(2S,4S)-2-(9-{2-[(2S,4S)-1-{(2S,3R)-2-[(methoxycarbonyl)amino]-3-methylpentanoyl}-4-methylpyrrolidin-2-yl]-1H-imidazol-5-yl}-1,11-dihydroisochromeno[4′,3′:6,7]naphtho[1,2-d]imidazol-2-yl)-4-(methoxymethyl)pyrrolidin-1-yl]-2-oxo-1-phenylethyl}carbamate], the bioavailability in [1] is 9.56%. Further, the EC50 in data set [2] (read-out: 2a JFH) was less than 1 nM; in data set [2] (read-out: 2a JFH (nM)), 0.008 nM; in [3], 0.011 nM; in data set [4] (read-out: 1a), less than 1 nM; in data set [4] (read-out: 1a (nM)), 0.011 nM; in data set [5] (read-out: 2b), less than 1 nM. For the same compound, the EC50 in data set [5] (read-out: 2b (t) (nM)) was 0.022 nM; in data set [6] (read-out: 2a J6), less than 1 nM; in data set [6] (read-out: 2a Jb (t) (nM)) it was 0.021 nM; in [7] (read-out: 3a) it was less than 1 nM; in data set [7] (read-out: 3a (nM)), 0.028 nM; in data set [8] (read-out: 1a Q30R) it was less than 1 nM. In addition, the EC50 in [8] (read-out: 1a Q30R (nM)) is 0.029 nM.
`COC[C@H]1C[C@@H](c2ncc(-c3ccc4c(c3)COc3cc5c(ccc6nc([C@@H]7CC[C@H](C)N7C(=O)[C@@H](NC(=O)OC)[C@@H](C)OC)[nH]c65)cc3-4)[nH]2)N(C(=O)[C@@H](NC(=O)OC)C(C)C)C1` [Example PI, methyl {(2S)-1-[(2S,4S)-2-(5-{2-[(2S,5S)-1-{(2S,3R)-3-methoxy-2-[(methoxycarbonyl)amino]butanoyl}-5-methylpyrrolidin-2-yl]-1,11-dihydroisochromeno[4′,3′:6,7]naphtho[1,2-d]imidazol-9-yl}-1H-imidazol-2-yl)-4-(methoxymethyl)pyrrolidin-1-yl]-3-methyl-1-oxobutan-2-yl}carbamate]: the bioavailability in data set [1] came to 8.7%. Also, the EC50 in [2] (read-out: 2a JFH) was less than 1 nM; in data set [2] (read-out: 2a JFH (nM)), 0.02 nM; in data set [3], 0.039 nM; in [4] (read-out: 1a), less than 1 nM; in data set [4] (read-out: 1a (nM)), 0.031 nM; in data set [5] (read-out: 2b), less than 1 nM. The EC50 in data set [5] (read-out: 2b (t) (nM)) was 0.09 nM; in data set [6] (read-out: 2a J6), less than 1 nM; in data set [6] (read-out: 2a Jb (t) (nM)) it was 0.129 nM; in [7] (read-out: 3a), less than 1 nM; in data set [7] (read-out: 3a (nM)), 0.065 nM; in [8] (read-out: 1a Q30R), less than 1 nM. Further, the EC50 in [8] (read-out: 1a Q30R (nM)) turned out to be 0.094 nM.
Consider `COC[C@H]1C[C@@H](c2ncc(-c3ccc4c(c3)COc3cc5c(ccc6nc([C@@H]7CC[C@H](C)N7C(=O)[C@@H](NC(=O)OC)C(C)C)[nH]c65)cc3-4)[nH]2)N(C(=O)[C@H](NC(=O)OC)c2ccccc2)C1` [Example PY, Methyl {(2S)-1-[(2S,5S)-2-(9-{2-[(2S,4S)-1-{(2R)-2-[(methoxycarbonyl)amino]-2-phenylacetyl}-4-(methoxymethyl)pyrrolidin-2-yl]-1H-imidazol-5-yl}-1,11-dihydroisochromeno[4′,3′:6,7]naphtho[1,2-d]imidazol-2-yl)-5-methylpyrrolidin-1-yl]-3-methyl-1-oxobutan-2-yl}carbamate], for which the bioavailability in [1] amounted to 27.7%. The EC50 is less than 1 nM in data set [2] (read-out: 2a JFH); 0.006 nM in [2] (read-out: 2a JFH (nM)); less than 1 nM in data set [9] (read-out: 4a); 0.018 nM in data set [9] (read-out: 4a (s) (nM)); less than 1 nM in data set [4] (read-out: 1a); 0.012 nM in data set [4] (read-out: 1a (nM)). Also, the EC50 in data set [5] (read-out: 2b) is less than 1 nM; in [5] (read-out: 2b (s) (nM)), 0.03 nM; in [5] (read-out: 2b (t) (nM)), 0.007 nM; in data set [6] (read-out: 2a J6), less than 1 nM; in [6] (read-out: 2a J6 (s) (nM)), 0.098 nM; in data set [6] (read-out: 2a Jb (t) (nM)), 0.009 nM. For the same compound, the EC50 in data set [7] (read-out: 3a) is less than 1 nM; in data set [7] (read-out: 3a (nM)) it was 0.017 nM; in [8] (read-out: 1a Q30R), less than 1 nM; in data set [8] (read-out: 1a Q30R (nM)), 0.013 nM.
For the compound `COC[C@H]1C[C@@H](c2ncc(-c3ccc4c(c3)COc3cc5c(ccc6nc([C@@H]7CC[C@H](C)N7C(=O)[C@@H](NC(=O)OC)C(C)C)[nH]c65)cc3-4)[nH]2)N(C(=O)[C@@H](NC(=O)OC)[C@H](C)OC)C1` [Example QA, Methyl {(2S)-1-[(2S,5S)-2-(9-{2-[(2S,4S)-1-{(2S,3S)-3-methoxy-2-[(methoxycarbonyl)amino]butanoyl}-4-(methoxymethyl)pyrrolidin-2-yl]-1H-imidazol-5-yl}-1,11-dihydroisochromeno[4′,3′:6,7]naphtho[1,2-d]imidazol-2-yl)-5-methylpyrrolidin-1-yl]-3-methyl-1-oxobutan-2-yl}carbamate], the bioavailability in data set [1] worked out at 7.46%. For the same compound, the EC50 in data set [2] (read-out: 2a JFH) was less than 1 nM; in data set [2] (read-out: 2a JFH (nM)) it was 0.007 nM; in [3], 0.013 nM; in data set [4] (read-out: 1a), less than 1 nM; in [4] (read-out: 1a (nM)), 0.012 nM; in data set [5] (read-out: 2b), less than 1 nM. Besides, the EC50 in data set [5] (read-out: 2b (s) (nM)) was 0.04 nM; in data set [5] (read-out: 2b (t) (nM)), 0.052 nM; in [6] (read-out: 2a J6) it was less than 1 nM; in data set [6] (read-out: 2a Jb (t) (nM)) it was 0.094 nM; in data set [7] (read-out: 3a), less than 1 nM; in [7] (read-out: 3a (nM)), 0.038 nM. For the same compound, the EC50 is less than 1 nM in data set [8] (read-out: 1a Q30R) and 0.045 nM in data set [8] (read-out: 1a Q30R (nM)).
